The source made the active and inactive calls.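 The calls were made as follows: active = compounds whose EC50 for boosting single-cell stem cell survival is at or below a set limit; inactive = the rest.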 Bounds are passed on as bounds.

By EC50 is commonly meant the concentration needed to bring the measured effect to its halfway point.

This experiment has as its system human iPSC single-cell survival, ATP luminescence. Nature of the experiment: enhancers of single-cell hiPSC survival, dose response, luminescence (AID 623861).
As for `Cc1ccc(OCCN2CCN(c3nc(NCc4ccco4)c4ccccc4n3)CC2)cc1`, the EC50 is 2.81 µM.
Next, `CCCc1ccc(C(=O)N2CCN(c3ccccc3OCC)CC2)cc1`: > 80 µM (inactive); `C1CCN(c2nc3nonc3nc2N2CCCC2)C1`: > 80 µM (inactive).
Turning to `CCC(C(=O)Nc1ccc2[nH]ncc2c1)c1ccccc1` (stereo not drawn), the EC50 was 9.45 µM.
On to `C=C1C(=O)OC2C1CCC(C)=C1C(=O)C3OC3(C)C12` (stereo not drawn), for which the EC50 is > 80 µM (inactive).
For `CCCCCCC[C@@H](C/C=C/CCC(=O)N(C)C/C(=C/Cl)C/C(=C\C(=O)N1CC(OC)=CC1=O)OC)OC`, the EC50 is 1.11 µM.
To `COc1ccc(S(=O)(=O)Nc2ccc3c(c2)C(=O)N([C@H](C)CO)C[C@H](C)[C@@H](CN(C)C(=O)NC2CCCCC2)O3)cc1` belongs > 80 µM (inactive); to `CCCNC(=O)COC(=O)c1ccccc1C(=O)c1ccc(Cl)c([N+](=O)[O-])c1`, 47.1 µM (inactive).
To `COCCNC(=O)c1ccc(-c2cn[nH]c2)c2ccoc12` belongs 11.2 µM; to `CC1C/C(=C/c2ccncc2)C(=O)/C(=C/c2ccncc2)C1` (stereo not drawn), 12.9 µM.
Next, `COc1ccc(C(C#N)(CC(=O)O)c2cnccn2)cc1OC` (stereo not drawn): > 80 µM (inactive); `CCS(=O)(=O)c1ncc(Cl)c(C(=O)Nc2ccc(S(=O)(=O)N3CCCC(C)C3)cc2)n1` (stereo not drawn): > 80 µM (inactive); `O=c1cc(-c2ccccc2)nc2nc(SCc3ccccc3)[nH]n12`: > 80 µM (inactive).
With `O=C1CCC2(C(=O)O)Sc3ccccc3N12` (stereo not drawn), the EC50 was > 80 µM (inactive).
Turning to `CCOC(=O)c1c(C)nc2sc3c(c2c1-c1ccc(OC)cc1)NC(c1ccccc1)NC3=O` (stereo not drawn), the EC50 was > 80 µM (inactive).
In the case of `C[C@@H]1CN([C@@H](C)CO)C(=O)c2cc(Br)cnc2O[C@H]1CN(C)C(=O)C1CC1`, the EC50 is > 80 µM (inactive).
Take `O=C(CNC(=O)c1ccccc1)OC(C(=O)Nc1cc(C(F)(F)F)ccc1Cl)c1ccccc1` (stereo not drawn): the EC50 is > 80 µM (inactive).
In the case of `O=C(Nc1cccnc1Cl)c1cccnc1Cl`, the EC50 is > 80 µM (inactive).
For the compound `Cc1ccc(NS(=O)(=O)c2ccc3c(c2)CC(=O)N3)c(C)c1`, the EC50 was > 80 µM (inactive).
For the compound `Oc1ccc(-c2onc(C(F)(F)F)c2-c2cscn2)c(O)c1`, the EC50 was > 80 µM (inactive).
To `COC(=O)C1=C(C)N(C)C(C)=C(C(=O)OC)C1c1cccc(Br)c1` belongs > 80 µM (inactive); to `CC(C)C12CN3CC(C(C)C)(CN(C1)C3c1ccccc1O)C2=O` (stereo not drawn), > 80 µM (inactive).
Consider `Cc1c(C(=O)NCc2ccccc2C(F)(F)F)sc(=O)n1Cc1ccc2ccccc2c1`, for which the EC50 is > 80 µM (inactive).
For the compound `COc1ccc2c(c1)c1ccc3c(c1n2C)C(=O)C=CC3=O`, the EC50 was > 80 µM (inactive).
For `Cc1ccc(S(=O)(=O)N[C@H](C(=O)OCC(=O)NC(=O)NCc2ccco2)C(C)C)cc1`, the EC50 is > 80 µM (inactive).
Turning to `Cc1ccc(-n2nc(C)c3c(C)cc(=O)[nH]c32)cc1`, the EC50 is > 80 µM (inactive).
Regarding `CN1C/C(=C/c2cccnc2)C(=O)/C(=C/c2cccnc2)C1`, the EC50 is 13.7 µM.
Take `CNc1nc(Cl)nc(NC(C)(C)C)n1`: the EC50 was > 80 µM (inactive).
For `CCCOC(=O)Oc1ccc2c(=O)c(Oc3cc(C)cc(C)c3)coc2c1`, the EC50 is > 80 µM (inactive).
Take `O=C(NCC1CC1)c1ccc(-c2cn[nH]c2)c2ccoc12`: the EC50 is 13.1 µM.
To `CCCn1c(SCc2ccccc2)nc2c1c(=O)[nH]c(=O)n2C` belongs > 80 µM (inactive).
As to `CCC(OC(=O)c1ccc(S(C)(=O)=O)c([N+](=O)[O-])c1)C(=O)NC1C2CC3CC(C2)CC1C3` (stereo not drawn), the EC50 was > 80 µM (inactive).
Take `C[C@@H](NC(=O)[C@@H]1Cc2ccccc2CN1)C(=O)Nc1ccc2c(c1)OCO2`: the EC50 was > 80 µM (inactive).
Take `C=C1C(C)C2C(Cc3ccccc3)NC(=O)C23OC(=O)/C=C/C(O)CCCC(C)C/C=C/C3C1O` (stereo not drawn): the EC50 was 11.5 µM.
Turning to `CS(=O)(=O)N(Cc1cc2ccccc2[nH]c1=O)C1CCCCC1`, the EC50 was > 80 µM (inactive).
To `CN(Cc1ccc(C(F)(F)F)cc1)C(=O)[C@H]1O[C@@H](n2cnc3c(N)ncnc32)[C@H](O)[C@@H]1O` belongs 26.1 µM (inactive); to `CN(C(=O)COC(=O)c1nc(Cl)c(Cl)c(Cl)c1Cl)C1CCS(=O)(=O)C1` (stereo not drawn), 31.1 µM (inactive); to `CCc1c(C(=O)Nc2ccc(OC)cc2)[nH]c(C)c1C(C)=O`, > 80 µM (inactive).
For the compound `CCn1c(Cl)c(C=O)s/c1=N\S(=O)(=O)c1ccccc1`, the EC50 is 24.8 µM (inactive).
Regarding `CCOC(=O)c1ccc(NC(=O)c2nc(S(=O)(=O)Cc3ccccc3)ncc2Cl)cc1`, the EC50 was > 80 µM (inactive).
To `CC1(C)Cc2c(C#N)c(NCC3CCCO3)nc(-c3ccco3)c2CO1` (stereo not drawn) belongs 15.6 µM.
As to `O=C(Nc1ccncc1)c1ccccc1[N+](=O)[O-]`, the EC50 is 52.6 µM (inactive).
Regarding `COc1c(Cl)cnn(-c2ccc(C)cc2)c1=O`, the EC50 is > 80 µM (inactive).
Take `O=c1c(Cl)c(Cl)cnn1Cc1nnc(-c2ccccc2Br)o1`: the EC50 is 8.37 µM.
`Cn1cnnc1SCC(=O)c1ccc2c(c1)OCO2`: the EC50 is > 80 µM (inactive).
With `CN(Cc1ccccc1)C(=O)CN1CCN(S(=O)(=O)c2ccccc2F)CC1`, the EC50 was > 80 µM (inactive).
In the case of `O=C(NCc1ccccc1)c1ccc(-c2cn[nH]c2)c2ccoc12`, the EC50 was 1.22 µM.
Next, `CC(OC(=O)c1ccc(S(=O)(=O)N2CCCCC2)cc1)C(=O)Nc1ccc(C(N)=O)cc1` (stereo not drawn): 8.72 µM; `CS(=O)(=O)Nc1ccc2c3c(cccc13)CC2`: > 80 µM (inactive); `CCCCCCn1c(SCCN2CCOCC2)nc2c1c(=O)[nH]c(=O)n2C`: > 80 µM (inactive).
`Cc1ccc(CN2CCN(Cc3cn(C)nc3C)CC2CCO)o1` (stereo not drawn): the EC50 is > 80 µM (inactive).
Turning to `Cn1c(=O)cc(OCCCC(=O)Nc2cccc(Cl)c2)c2ccccc21`, the EC50 was > 80 µM (inactive).
Take `Cn1nc(-c2ccccc2)c(C(O)c2ccccc2C(F)(F)F)c1Cl` (stereo not drawn): the EC50 was > 80 µM (inactive).
To `N#C/C(=C/c1cccc([N+](=O)[O-])c1)c1nnc2n1CCCCC2` belongs 7.37 µM; to `Cc1ccc([C@@H]2C[C@H]3[C@@H](CN2S(=O)(=O)c2ccc(Cl)cc2)C(=O)C[C@@H](c2ccc(C)cc2)N3S(=O)(=O)c2ccc(Cl)cc2)cc1`, > 80 µM (inactive); to `O=C(COC(=O)c1ccccc1C(=O)c1ccc(Cl)c([N+](=O)[O-])c1)NC1CC1`, > 80 µM (inactive).
For the compound `COc1ccccc1CC(=O)Nc1ccc(-c2noc(COc3cccc(C)c3C)n2)cc1`, the EC50 was > 80 µM (inactive).
With `COc1cccc(C2CC(=O)N3CN(c4cccc(Cl)c4C)CSC3=C2C#N)c1OC` (stereo not drawn), the EC50 is > 80 µM (inactive).

For the origin of these results see PubChem BioAssay AID623861 (Sanford-Burnham Center for Chemical Genomics, 2012).
